Where two headings read alike, the source gives them in different places.
Legend:
[1] = tested on: M-HeLa
[2] = tested on: A549; assay: cells; settings: Homo sapiens, A549, 48 h, read-out: Cytotoxic Effects (IC50)
[3] = tested on: Enterococcus faecalis ATCC 29212; assay: Antimicrobial activity, serial microdilutions, Ef; type: cell-based; settings: Enterococcus faecalis; for MIC: ATCC29212, read-out: Minimum Inhibitory Concentration (MIC); for MBC: ATCC29212, read-out: Minimum bactericidal and fungicidal concentrations (MBC, MFC)
Procedure: (§1) The antimicrobial activity of test compounds was determined by serial microdilutions in 96-well plates using Mueller-Hinton broth for bacterial culture and Sabouraud broth for yeast culture. Cultures of Gram-positive bacteria were used in the experiment: Staphylococcus aureus ATCC 6538 P FDA 209P, Bacillus cereus ATCC 10702 NCTC 8035, Enterococcus faecalis ATCC 29212; Gram-negative bacteria: Escherichia coli ATCC 25922, Pseudomonas aeruginosa ATCC 9027; and yeast: Candida albicans ATCC 10231, purchased from the State Collection of Pathogenic Microorganisms and Cell Cultures “SCPM-Obolensk” (Obolensk, Russia). Methicillin-resistant strains of S. aureus (MRSA) were isolated from patients with chronic tonsillitis (MRSA-1) and sinusitis (MRSA-2) in the bacteriological laboratory of the Republican Clinical Hospital (Kazan, Russia). The experiments were carried out in triplicate.

[4] = tested on: DU-145; assay: cells; settings: Homo sapiens, DU-145, 48 h, read-out: Cytotoxic Effects (IC50), DU-145, MTT assay, 48 h
[5] = tested on: MCF-7; assay: cells; settings: Homo sapiens, MCF7, 48 h, read-out: Cytotoxic Effects (IC50)
[6] = tested on: Bacillus cereus ATCC 10702 NCTC 8035; assay: Antimicrobial activity, serial microdilutions, Bc; type: cell-based; settings: Bacillus cereus; for MIC: Bc, read-out: Minimum Inhibitory Concentration (MIC); for MBC: read-out: Minimum bactericidal and fungicidal concentrations (MBC, MFC)
Procedure: as §1

[7] = tested on: PANC-1; assay: cells; settings: Homo sapiens, PANC-1, 48 h, read-out: Cytotoxic Effects (IC50)
[8] = tested on: A549
[9] = tested on: PC3
[10] = tested on: PANC-1
[11] = tested on: Staphylococcus aureus ATCC 6538 P FDA 209P; assay: Antimicrobial activity, serial microdilutions, Sa; type: cell-based; settings: Staphylococcus aureus; for MIC: read-out: Minimum Inhibitory Concentration (MIC); for MBC: read-out: Minimum bactericidal and fungicidal concentrations (MBC, MFC)
Procedure: as §1

[12] = tested on: MRSA-1; assay: Antimicrobial activity, serial microdilutions, MRSA-1; type: cell-based, S. aureus; settings: Staphylococcus aureus; for MIC: read-out: Minimum Inhibitory Concentration (MIC); for MBC: read-out: Minimum bactericidal and fungicidal concentrations (MBC, MFC)
Procedure: as §1

[13] = tested on: HuTu 80; assay: cells; settings: Homo sapiens, HuTu80, 48 h, read-out: Cytotoxic Effects (IC50)
[14] = tested on: Pseudomonas aeruginosa ATCC 9027; assay: Antimicrobial activity, serial microdilutions, Pa; type: cell-based; parameters: key to Minimum Inhibitory Concentration (MIC) / Minimum bactericidal and fungicidal concentrations (MBC, MFC): – means non-active; settings: for MIC / MBC: Pseudomonas aeruginosa; for MIC: ATCC9027, read-out: Minimum Inhibitory Concentration (MIC); for MBC: ATCC9027, read-out: Minimum bactericidal and fungicidal concentrations (MBC, MFC)
Procedure: as §1

[15] = tested on: MCF-7
[16] = tested on: Escherichia coli ATCC 25922; assay: Antimicrobial activity, serial microdilutions, Ec; type: cell-based; settings: Escherichia coli; for MIC: ATCC25922, read-out: Minimum Inhibitory Concentration (MIC); for MBC: ATCC25922, read-out: Minimum bactericidal and fungicidal concentrations (MBC, MFC)
Procedure: as §1

[17] = tested on: T98G
[18] = tested on: M-HeLa; assay: cells; settings: Homo sapiens, 48 h, read-out: Cytotoxic Effects (IC50)
[19] = tested on: T98G; assay: cells; settings: Homo sapiens, 48 h, read-out: Cytotoxic Effects (IC50)
[20] = tested on: Candida albicans ATCC 10231; assay: Antimicrobial activity, serial microdilutions, Ca; type: cell-based; parameters: key to Minimum Inhibitory Concentration (MIC) / Minimum bactericidal and fungicidal concentrations (MBC, MFC): – means non-active; settings: for MIC / MBC: Candida albicans, ATCC10231; for MIC: read-out: Minimum Inhibitory Concentration (MIC); for MBC: read-out: Minimum bactericidal and fungicidal concentrations (MBC, MFC)
Procedure: as §1

[21] = tested on: SK-OV-3; assay: cells; settings: Homo sapiens, SK-OV-3, 48 h, read-out: Cytotoxic Effects (IC50)
[22] = tested on: MRSA-2; assay: Antimicrobial activity, serial microdilutions, MRSA-2; type: cell-based, S. aureus; settings: Staphylococcus aureus; for MIC: read-out: Minimum Inhibitory Concentration (MIC); for MBC: read-out: Minimum bactericidal and fungicidal concentrations (MBC, MFC)
Procedure: as §1

[23] = tested on: HuTu 80
[24] = tested on: Hep G2; assay: cells; settings: Homo sapiens, HepG2, 48 h, read-out: Cytotoxic Effects (IC50)
[25] = tested on: DU-145
[26] = tested on: PC3; assay: cells; settings: Homo sapiens, PC-3, 48 h, read-out: Cytotoxic Effects (IC50), PC3, MTT assay, 48 h
[27] = tested on: Hep G2
[28] = tested on: SK-OV-3
[29] = calculated relative to the cell line WI38 (a)
[30] = reference normal cell line not marked at the place (ns cells)
[31] = calculated relative to the cell line Chang liver (b)

SMILES | IC50 [2] | MIC [3] | MBC [3] | IC50 [4] | IC50 [5] | MIC [6] | MBC [6] | IC50 [7] | MIC [11] | MBC [11] | MIC [12] | MBC [12] | IC50 [13] | MBC [14] | MIC [16] | MBC [16] | IC50 [18] | IC50 [19] | IC50 [21] | MIC [22] | other results
CCCCCCCCCC[P+](c1ccccc1)(c1ccccc1)N(CC)CC [6d, Decyl(diethylamino)diphenylphosphonium iodide] | 8200 ± 700 nM | 3.9 ± 0.3 µM | 250 ± 19 µM | 430 ± 30 nM | 1600 ± 100 nM | 0.9 ± 0.08 µM | 250 ± 21 µM | 400 ± 30 nM | 0.9 ± 0.08 µM | 62.5 ± 5.4 µM | 0.5 ± 0.03 µM | 0.9 ± 0.07 µM | 350 ± 20 nM | 125 ± 9 µM | 62.5 ± 5.3 µM | 62.5 ± 5.5 µM | 240 ± 20 nM | 600 ± 50 nM | 3900 ± 400 nM | 0.5 ± 0.03 µM | selectivity index (SI) [1, 29]: 1.6; selectivity index (SI) [8, 30]: ns (ns—no selectivity); selectivity index (SI) [9, 30]: ns (ns—no selectivity); selectivity index (SI) [10, 29]: 1.0; MIC [14]: 125 ± 10 µM; selectivity index (SI) [15, 30]: ns (ns—no selectivity); selectivity index (SI) [17, 30]: ns (ns—no selectivity); MIC [20]: 62.5 ± 5.4 µM; MBC [20]: 250 ± 19 µM; MBC [22]: 0.9 ± 0.08 µM; selectivity index (SI) [23, 29]: 1.1; IC50 [24]: 1300 ± 100 nM; selectivity index (SI) [25, 29]: 1.0; IC50 [26]: 1400 ± 100 nM; selectivity index (SI) [27, 30]: ns (ns—no selectivity); selectivity index (SI) [28, 30]: ns (ns—no selectivity)
CCCCCCCCC[P+](c1ccccc1)(N(CC)CC)N(CC)CC [5c, Bis(diethylamino)(nonyl)(phenyl)phosphonium iodide] | 8700 ± 700 nM | 31.3 ± 2.2 µM | 500 ± 48 µM | 900 ± 70 nM | 3100 ± 200 nM | 3.9 ± 0.3 µM | 500 ± 48 µM | 2800 ± 200 nM | 3.9 ± 0.3 µM | 125 ± 10 µM | 3.9 ± 0.3 µM | 62.5 ± 5.5 µM | 2800 ± 300 nM | > 500 µM | 250 ± 19 µM | 500 ± 48 µM | 1700 ± 100 nM | 2700 ± 300 nM | 14800 ± 1200 nM | 3.9 ± 0.4 µM | selectivity index (SI) [1, 31]: 2.4; selectivity index (SI) [8, 30]: ns (ns—no selectivity); selectivity index (SI) [9, 30]: ns (ns—no selectivity); selectivity index (SI) [10, 31]: 1.5; Minimum Inhibitory Concentration (MIC) [14]: –; selectivity index (SI) [15, 31]: 1.3; selectivity index (SI) [17, 31]: 1.5; Minimum Inhibitory Concentration (MIC) ([20]; Ca): –; Minimum bactericidal and fungicidal concentrations (MBC, MFC) ([20]; Ca): –; MBC [22]: 62.5 ± 5.4 µM; selectivity index (SI) [23, 31]: 1.5; IC50 [24]: 2300 ± 100 nM; selectivity index (SI) [25, 31]: 4.6; IC50 [26]: 10000 ± 900 nM; selectivity index (SI) [27, 31]: 1.8; selectivity index (SI) [28, 30]: ns (ns—no selectivity)
CCCCCCCCCCCCCC[P+](c1ccccc1)(c1ccccc1)N(CC)CC [6e, (Diethylamino)diphenyl(tetradecyl)phosphonium bromide] | 2100 ± 100 nM | 0.5 ± 0.03 µM | 0.9 ± 0.1 µM | 400 ± 20 nM | 1200 ± 100 nM | 0.9 ± 0.08 µM | 31.3 ± 2.5 µM | 300 ± 20 nM | 0.5 ± 0.04 µM | 0.5 ± 0.04 µM | 0.5 ± 0.04 µM | 1.9 ± 0.1 µM | 70 ± 5 nM | 3.9 ± 0.4 µM | 31.3 ± 2.4 µM | 125 ± 11 µM | 400 ± 30 nM | 1100 ± 90 nM | 1600 ± 100 nM | 0.5 ± 0.03 µM | selectivity index (SI) [1, 29]: 7.0; selectivity index (SI) [8, 29]: 1.3; selectivity index (SI) [9, 29]: 1.9; selectivity index (SI) [10, 29]: 9.3; MIC [14]: 3.9 ± 0.3 µM; selectivity index (SI) [15, 29]: 2.3; selectivity index (SI) [17, 29]: 2.5; MIC [20]: 1.9 ± 0.1 µM; MBC [20]: 15.6 ± 1.2 µM; MBC [22]: 0.5 ± 0.04 µM; selectivity index (SI) [23, 29]: 40; IC50 [24]: 1400 ± 100 nM; selectivity index (SI) [25, 29]: 7.0; IC50 [26]: 1500 ± 100 nM; selectivity index (SI) [27, 29]: 2.0; selectivity index (SI) [28, 29]: 1.8

Reference: publication PMC10649961, “Novel Mitochondria-Targeted Amphiphilic Aminophosphonium Salts and Lipids Nanoparticles: Synthesis, Antitumor Activity and Toxicity” (Nanomaterials, 2023)
